Laboratory results as given in patent US20100093861A1, “TREATMENT OF INSULIN RESISTANCE OR DISEASES ASSOCIATED WITH INSULIN RESISTANCE” (Stevia ApS, priority 2006, published 2010).

Columns and labels:
[1] = system: PDX-1; assay: Gene expression in islets from diabetic KKAy-mice, real time RT-PCR (Example 2): PDX-1; type: in vivo; conditions: islets of KKAy-mice after nine weeks treatment, normalized to 18S rRNA
Procedure: (§1) A the end of the nine week period of the in vivo study in example 1 RNA was purified from Islets, muscle, liver and fat from the three experimental groups, using standard techniques as described in Kiergen, RNA easy.
(§2) Gene expression of PDX-1, IRS1, Beta2, 11beta-HSD-1, Akt1, C/EBP-alpha, CPT1, GLUT2, IGF1, IR and Ins1 was measured with Real time RT-PCR using Taq Man Assays normalized to 18S rRNA, using the standard protocol (ABI, USA). All reagents were obtained from (ABI, USA). All probes are standard probes obtainable from ABI, USA, under the specific probe code number, given in respect of each gene.

[2] = system: Beta2; assay: Gene expression in islets from diabetic KKAy-mice, real time RT-PCR (Example 2): Beta2; type: in vivo; conditions: islets of KKAy-mice after nine weeks treatment, normalized to 18S rRNA
Procedure: as §1, §2

[3] = system: IGF-1; assay: Gene expression in islets from diabetic KKAy-mice, real time RT-PCR (Example 2): IGF-1; type: in vivo; conditions: islets of KKAy-mice after nine weeks treatment, normalized to 18S rRNA
Procedure: as §1, §2

[4] = system: Beta2/neuroD; assay: Relative real time RT-PCR in islets of KKAy mice (Example 3): Beta2/neuroD; type: in vivo; conditions: 9 weeks, normalized to 18S rRNA
Procedure: Islets were isolated by the collagenase digestion technique. In brief, the animals were anesthetized with pentobarbital (50 mg/kg intraperitoneally) and midline laparotomy was performed. The pancreas was retrogradely filled with 3 mL ice-cold Hanks balanced salt solution (([HBSS] Sigma Chemical, St Louis, Mo.) supplemented with 0.3 mg/ml collagenase Boehringer Mannheim GmbH, Germany). The pancreas was subsequently removed and incubated for 19 minutes at 37° C. After rinsing in HBSS, the islets were handpicked under a stereomicroscope and immediately transferred to a tubes containing 1 ml Trizol (Gibco/Invitrogene, Calsbad, Calif., USA). The islets isolated from the NMRI mice were incubated overnight at 37° C. and 95% normal atmosphere/5% CO2 in 10 ml RPMI 1640 containing 11.1 mmol/L glucose supplemented with penicillin G and 100 μg/mL streptomycin (all Gibco/Invitrogene, Calsbad, Calif., USA).
For each group, islets from 3-4 mice (180-200 islets) were pooled in 1 ml Trizol reagent (Gibco/lnvitrogene, Calsbad, Calif., USA) before RNA purification. Total RNA was extracted according to the manufactures' instructions. RNA was quantified by measuring absorbance at 260 and 280 nm. The quality of the RNA was checked by the Agilent 2100 bioanalyzer (Agilent, Santa Clara, USA). […]

[5] = system: Beta2/neuroD; assay: Affymetrix gene chip analysis of KKAy islets: Beta2/neuroD; type: in vivo, mice; conditions: ISV vs. KKAy control islets, 9 weeks
Procedure: (§3) cRNA preparation and in vitro transcription: In total 6 Affymetrix arrays MOE430 2.0 probe array cartridge were used i.e. for analysis of 3 replicas for the KKAy control group and the ISV group, respectively. Each of the 6 samples consisted of pooled RNA from 3-4 KKAy mice. Preparation of target for hybridization was prepared from 340 ng of total RNA using MessageAmp™ II aRNA Amplification Kits (Ambion), according to the manufacturers instructions. Arrays were hybridised and scanned as described elsewhere (Kruhoffer et al., 2005).

[6] = system: Pdx1; assay: Affymetrix gene chip analysis of KKAy islets: Pdx1; type: in vivo, mice; conditions: ISV vs. KKAy control islets, 9 weeks
Procedure: as §3

[7] = system: C/EBPalpha; assay: Affymetrix gene chip analysis of KKAy islets: C/EBPalpha; type: in vivo, mice; conditions: ISV vs. KKAy control islets, 9 weeks
Procedure: as §3

[8] = system: InsII; assay: Affymetrix gene chip analysis of KKAy islets: InsII; type: in vivo, mice; conditions: ISV vs. KKAy control islets, 9 weeks
Procedure: as §3

[9] = system: Akt1; assay: Affymetrix gene chip analysis of KKAy islets: Akt1; type: in vivo, mice; conditions: ISV vs. KKAy control islets, 9 weeks
Procedure: as §3

[10] = system: InsI; assay: Affymetrix gene chip analysis of KKAy islets: InsI; type: in vivo, mice; conditions: ISV vs. KKAy control islets, 9 weeks
Procedure: as §3

[11] = system: Foxa2; assay: Affymetrix gene chip analysis of KKAy islets: Foxa2; type: in vivo, mice; conditions: ISV vs. KKAy control islets, 9 weeks
Procedure: as §3

[12] = system: Somatostatin; assay: Affymetrix gene chip analysis of KKAy islets: Somatostatin; type: in vivo, mice; conditions: ISV vs. KKAy control islets, 9 weeks
Procedure: as §3

[13] = system: total insulin protein content of KKAy islets; assay: Insulin content of isolated islets from KKAy mice (RIA); type: in vivo; conditions: KKAy mice after 9 weeks treatment
Procedure: The Insulin content of isolated islet from the KKAy mice was measured using RIA as described for the Insulin assay. Total islet protein was purified from the organic phase during from the RNA Trizol preparation according to the manufactures instruction (Gibco BRL, Life Technologies, Roskilde, DK).
In order to clarify if this increased levels of Ins1 mRNA are translated, the total insulin content from the very limited protein fraction collected from the organic phase during RNA preparation from isolated islets from the KKAY and ISV group was measured using RIA (FIG. 17). The insulin content from the ISV group compared to the KKAy control was 2.4 fold (p=0.003) higher, supporting the gene expression analysis.

In the case of `C[C@@]12CC[C@@H]3[C@@](CC[C@H]4[C@@]3(C)CCC[C@@]4(C)C(=O)O)(CC1=O)C2` (single isomer, unassigned; ent-16) [ISV, ent-16-ketobeyeran-19-oic acid], the “increased expression of PDX-1 compared to standard diet” value [1] is reported as 96%, the “increased expression of beta2 compared to standard diet” value [2] is reported as 60% and the “decreased expression of IGF1 compared to standard diet” value [3] is reported as 46%. For the same molecule, the “increased expression of Beta2/neuroD, ISV group vs. control group” value [4] was 60%, the “array: change of Beta2/neuroD expression” value [5] was “upregulation” and the “array: change of Pdx1 expression” value [6] was “upregulation”. For the same molecule, the “array: change of C/EBPalpha expression” value [7] was “down regulation”, the “array: change of InsII expression” value [8] was “no changes” and the “array: change of Akt1 expression” value [9] was “no changes”. For the same molecule, the “array: change of InsI expression” value [10] was “did not show any statistical significant increase”, the “array: increased expression in Foxa2” value [11] was 1.9 fold and the “array: increased expression in Somatostatin” value [12] was 2.3 fold. For the same molecule, the “insulin content of islets compared to the KKAy control, higher” value [13] was 2.4 fold.
